Assay [1] has as its target T1, human recombinant ETA receptors (Homo sapiens, UniProt P25101).
T1 construct: expressed in transfected cells; host or cells: CHO cells (microsomal membranes)
T1 sequence (P25101 21-427): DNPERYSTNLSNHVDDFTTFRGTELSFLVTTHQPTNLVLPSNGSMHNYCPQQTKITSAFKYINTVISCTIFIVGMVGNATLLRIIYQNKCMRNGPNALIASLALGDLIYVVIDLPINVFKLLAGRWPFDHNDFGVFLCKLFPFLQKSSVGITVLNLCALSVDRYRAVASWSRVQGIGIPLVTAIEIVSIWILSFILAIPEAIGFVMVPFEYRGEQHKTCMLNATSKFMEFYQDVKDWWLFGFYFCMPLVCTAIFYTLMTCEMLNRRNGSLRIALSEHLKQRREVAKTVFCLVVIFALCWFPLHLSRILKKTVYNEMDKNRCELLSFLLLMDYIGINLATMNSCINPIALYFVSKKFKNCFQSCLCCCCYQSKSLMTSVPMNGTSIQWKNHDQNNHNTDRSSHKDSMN
The assay is described as follows: Inhibition of [125I]ET-1 binding to membranes from CHO cells carrying human ETA receptors. How it is done: (§1) 1) Inhibition of Endothelin Binding to Membranes from CHO Cells Carrying Human ET Receptors:
(§2) For competition binding studies, membranes of CHO cells expressing human recombinant ETA or ETB receptors were used.
(§3) The assay was performed in 200 uL 50 mM Tris/HCl buffer, pH 7.4, including 25 mM MnCl2, 1 mM EDTA and 0.5% (w/v) BSA in polypropylene microtiter plates. […] After 2 h, the membranes were filtered on filterplates containing GF/C filters (Unifilterplates from Canberra Packard S.A. Zürich, Switzerland). To each well, 50 uL of scintillation cocktail was added (MicroScint 20, Canberra Packard S.A. Zürich, Switzerland) and the filter plates counted in a microplate counter (TopCount, Canberra Packard S.A. Zürich, Switzerland).
(§4) All the test compounds were dissolved, diluted and added in DMSO.

The target of assay [2] is T2, human recombinant ETB receptors (Homo sapiens, UniProt P24530).
T2 construct: expressed in transfected cells; host or cells: CHO cells (microsomal membranes)
T2 sequence (P24530 27-442): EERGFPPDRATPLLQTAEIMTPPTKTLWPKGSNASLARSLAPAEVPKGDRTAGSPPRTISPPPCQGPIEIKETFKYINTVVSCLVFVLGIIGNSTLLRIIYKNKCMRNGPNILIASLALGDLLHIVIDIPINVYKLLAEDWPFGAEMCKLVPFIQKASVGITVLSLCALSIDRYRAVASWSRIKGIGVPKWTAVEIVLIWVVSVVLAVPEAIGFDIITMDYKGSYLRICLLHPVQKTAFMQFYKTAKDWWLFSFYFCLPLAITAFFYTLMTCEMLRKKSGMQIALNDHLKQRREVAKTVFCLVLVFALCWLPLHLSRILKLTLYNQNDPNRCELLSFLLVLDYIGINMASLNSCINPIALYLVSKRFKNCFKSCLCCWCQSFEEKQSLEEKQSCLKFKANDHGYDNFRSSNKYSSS
Put plainly: Inhibition of [125I]ET-1 binding to membranes from CHO cells carrying human ETB receptors. On the procedure: as §1, §2, §3, §4

This is an account of results in patent publication US7323465B2, “Alkansulfonamides as endothelin antagonists” (Actelion Pharmaceuticals Ltd., priority 2002, dated 2008).
Note: 2.5% DMSO.

Take `CCCCS(=O)(=O)Nc1ncnc(OCCOc2ncc(SC)cn2)c1Oc1cccc(OC)c1` [Example 30]: the values for the 50% inhibitory concentration (IC50) in assay [1] and in assay [2] were 2.3 nM and 111 nM, respectively.
For `COc1cnc(OCCOc2ncnc(NS(C)(=O)=O)c2-c2ccc(C)cc2)nc1` [Example 48], the values for the IC50 in assay [1] and in assay [2] were 23 nM and above 1000 nM, respectively.
With `CCS(=O)(=O)Nc1ncnc(OCCOc2ncc(Br)cn2)c1-c1ccc(Br)cc1` [Example 58], the IC50 in assay [1] is 0.66 nM; in assay [2], 838 nM.
As to `CCS(=O)(=O)Nc1ncnc(OCCOc2ncc(S(C)(=O)=O)cn2)c1-c1ccc(Br)cc1` [Example 61], the IC50 in assay [1] is 1.1 nM; in assay [2] it was 271 nM.
As to `CCS(=O)(=O)Nc1nc(C2CC2)nc(OCCOc2ncc(S(C)(=O)=O)cn2)c1-c1ccc(C)cc1` [Example 65], the IC50 in assay [1] is 1.4 nM; in assay [2], above 1000 nM.
Consider `CCCCS(=O)(=O)Nc1ncnc(OCCOc2ncc(S(C)(=O)=O)cn2)c1-c1ccc(Br)cc1` [Example 84], for which the IC50 stood at 0.56 nM in assay [1] and 118 nM in assay [2].
Turning to `COc1ccccc1Oc1c(NS(C)(=O)=O)nc(-c2ncccn2)nc1OCCOc1ncc(Br)cn1` [Example 14], in assay [1], the IC50 turned out to be 27 nM.
Consider `CCS(=O)(=O)Nc1ncnc(OCCOc2ncc(OC)cn2)c1Oc1ccccc1OC` [Example 41], for which the IC50 in assay [1] was 28 nM; in assay [2], 678 nM.
`CCS(=O)(=O)Nc1ncnc(OCCOc2ncc(SC)cn2)c1-c1ccc(Br)cc1` [Example 60]: the IC50 was 0.8 nM in assay [1] and 427 nM in assay [2].
Regarding `Cc1ccc(-c2c(NS(C)(=O)=O)ncnc2OCCCOc2ncc(Br)cn2)cc1` [Example 50], the figures for the IC50 in assay [1] and in assay [2] were 397 nM and above 1000 nM, respectively.
For `CCCS(=O)(=O)Nc1ncnc(OCCOc2ncc(S(C)(=O)=O)cn2)c1-c1ccc(Br)cc1` [Example 73] the same measures were 0.59 nM and 277 nM.
On the same counts, the results for `CCCCS(=O)(=O)Nc1ncnc(OCCOc2ncc(S(C)(=O)=O)cn2)c1Oc1cccc(OC)c1` [Example 31] are 1.8 nM and 180 nM.
As to `CSc1cnc(OCCOc2ncnc(NS(C)(=O)=O)c2-c2ccc(Br)cc2)nc1` [Example 55], the half-maximal inhibitory concentration (IC50) was 1.3 nM in assay [1] and 454 nM in assay [2].
Turning to `CCCCS(=O)(=O)Nc1nc(C2CC2)nc(OCCOc2ncc(Br)cn2)c1-c1ccc(C)cc1` [Example 77], the IC50 in assay [1] is 2.3 nM; in assay [2] it was above 1000 nM.
As to `CCS(=O)(=O)Nc1ncnc(OCCOc2ncc(Br)cn2)c1Oc1ccccc1OC` [Example 40], the IC50 came to 19 nM in assay [1] and 636 nM in assay [2].
Consider `CCS(=O)(=O)Nc1ncnc(OCCOc2ncc(OC)cn2)c1-c1ccc(Cl)cc1` [Example 67], for which the IC50 was 13 nM in assay [1] and above 1000 nM in assay [2].
Take `CCS(=O)(=O)Nc1ncnc(OCCOc2ncc(OC)cn2)c1-c1ccc(C)cc1` [Example 3, ethanesulfonic acid {6-[2-(5-methoxy-pyrimidin-2-yloxy)-ethoxy]-5-p-tolyl-pyrimidin-4-yl}-amide]: the values for the IC50 in assay [1] and in assay [2] were 38.2 nM and above 1000 nM, respectively.
With `CCCCS(=O)(=O)Nc1nc(C2CC2)nc(OCCOc2ncc(S(C)(=O)=O)cn2)c1-c1ccc(C)cc1` [Example 80], the IC50 in assay [1] is 1.5 nM; in assay [2], above 1000 nM.
With `CCS(=O)(=O)Nc1ncnc(OCCOc2ncc(Br)cn2)c1-c1ccc(Cl)cc1` [Example 66], the IC50 in assay [1] is 1.5 nM; in assay [2], above 1000 nM.
On the same counts, the results for `CSc1cnc(OCCOc2ncnc(NS(C)(=O)=O)c2-c2ccc(C)cc2)nc1` [Example 49] are 2.3 nM and above 1000 nM.
As to `CCCCS(=O)(=O)Nc1nc(-c2ncccn2)nc(OCCOc2ncc(Br)cn2)c1Oc1ccccc1OC` [Example 25], the IC50 in assay [1] is 6.5 nM.
On to `CCCS(=O)(=O)Nc1ncnc(OCCOc2ncc(S(C)(=O)=O)cn2)c1Oc1ccccc1OC` [Example 35], for which the IC50 was 11 nM in assay [1] and above 1000 nM in assay [2].
For `CCCS(=O)(=O)Nc1ncnc(OCCOc2ncc(OC)cn2)c1-c1ccc(Br)cc1` [Example 71] the same measures were 3.6 nM and above 1000 nM.
For `CCS(=O)(=O)Nc1ncnc(OCCOc2ncc(OC)cn2)c1-c1ccc(Br)cc1` [Example 59] the same measures were 6.8 nM and above 1000 nM.
On to `CS(=O)(=O)Nc1ncnc(OCCOc2ncc(C3CC3)cn2)c1-c1ccc(Br)cc1` [Example 57], for which the results for the 50% inhibitory concentration (IC50) in assay [1] and in assay [2] were 6.9 nM and above 1000 nM, respectively.
For `CCCCS(=O)(=O)Nc1ncnc(OCCOc2ncc(SC)cn2)c1-c1ccc(C)cc1` [Example 76], the results for the concentration for half-maximal inhibition (IC50) in assay [1] and in assay [2] were 1.1 nM and above 1000 nM, respectively.
For `CCCCS(=O)(=O)Nc1ncnc(OCCOc2ncc(OC)cn2)c1-c1ccc(Br)cc1` [Example 82], the IC50 was 1.27 nM in assay [1] and above 1000 nM in assay [2].
In the case of `CCCS(=O)(=O)Nc1ncnc(OCCOc2ncc(OC)cn2)c1-c1ccc(C)cc1` [Example 6, propane-1-sulfonic acid {6-[2-(5-methoxy-pyrimidin-2-yloxy)-ethoxy]-5-p-tolyl-pyrimidin-4-yl}-amide], the figures for the IC50 in assay [1] and in assay [2] were 17.1 nM and above 1000 nM, respectively.
As for `CCS(=O)(=O)Nc1nc(C2CC2)nc(OCCOc2ncc(OC)cn2)c1-c1ccc(C)cc1` [Example 63], the IC50 in assay [1] was 25 nM; in assay [2], above 1000 nM.
For the compound `CCCCS(=O)(=O)Nc1ncnc(OCCOc2ncc(OC)cn2)c1-c1ccc(C)cc1` [Example 75], the values for the IC50 in assay [1] and in assay [2] were 3.5 nM and above 1000 nM, respectively.
`CCCCS(=O)(=O)Nc1ncnc(OCCOc2ncc(Br)cn2)c1-c1ccc(C)cc1` [Example 74]: the IC50 was 0.63 nM in assay [1] and above 1000 nM in assay [2].
On the same counts, the results for `CCCCS(=O)(=O)Nc1ncnc(OCCOc2ncc(SC)cn2)c1-c1ccc(Br)cc1` [Example 83] are 0.49 nM and 640 nM.
Turning to `CCS(=O)(=O)Nc1nc(-c2ncccn2)nc(OCCOc2ncc(Br)cn2)c1Oc1ccccc1OC` [Example 7, ethanesulfonic acid [6-[2-(5-bromo-pyrimidin-2-yloxy)-ethoxy]-5-(2-methoxy-phenoxy)-[2,2′]bipyrimidinyl-4-yl]-amide], the IC50 in assay [1] was determined as 16.3 nM.
With `CCS(=O)(=O)Nc1nc(-c2ncccn2)nc(OCCOc2ncc(OC)cn2)c1Oc1ccccc1OC` [Example 12, ethanesulfonic acid [6-[2-(5-methoxy-pyrimidin-2-yloxy)-ethoxy]-5-(2-methoxy-phenoxy)-[2,2′]bipyrimidinyl-4-yl]-amide], the figures for the IC50 in assay [1] and in assay [2] were 59 nM and 469 nM, respectively.
For the compound `CCCS(=O)(=O)Nc1nc(-c2ncccn2)nc(OCCOc2ncc(OC)cn2)c1Oc1ccccc1OC` [Example 10, n-propanesulfonic acid [6-[2-(5-methoxy-pyrimidin-2-yloxy)-ethoxy]-5-(2-methoxy-phenoxy)-[2,2′]bipyrimidinyl-4-yl]-amide], the IC50 in assay [1] was 42.6 nM; in assay [2], 689 nM.
Turning to `CCCCS(=O)(=O)Nc1nc(-c2ncccn2)nc(OCCOc2ncc(OC)cn2)c1Oc1ccccc1OC` [Example 26], the figures for the IC50 in assay [1] and in assay [2] were 19 nM and 881 nM, respectively.
Take `CCCS(=O)(=O)Nc1ncnc(OCCOc2ncc(SC)cn2)c1-c1ccc(Br)cc1` [Example 72]: the IC50 in assay [1] turned out to be 0.6 nM; in assay [2], 936 nM.
On the same counts, the results for `CCS(=O)(=O)Nc1nc(C2CC2)nc(OCCOc2ncc(SC)cn2)c1-c1ccc(C)cc1` [Example 64] are 3.5 nM and above 1000 nM.
Consider `CCS(=O)(=O)Nc1nc(C2CC2)nc(OCCOc2ncc(Br)cn2)c1-c1ccc(C)cc1` [Example 62], for which the IC50 in assay [1] was 5.5 nM; in assay [2], above 1000 nM.
Take `CCCS(=O)(=O)Nc1ncnc(OCCOc2ncc(Br)cn2)c1-c1ccc(Br)cc1` [Example 70]: the IC50 in assay [1] was 0.46 nM.
Still for that read-out and setting: the result for `CCCS(=O)(=O)Nc1nc(-c2ncccn2)nc(OCCOc2ncc(Br)cn2)c1Oc1ccccc1OC` [Example 8] reads 11 nM; that for `CCCCS(=O)(=O)Nc1ncnc(OCCOc2ncc(Br)cn2)c1-c1ccc(Br)cc1` [Example 81], 0.54 nM.

What is called IC50 is the midpoint of a concentration-inhibition curve.
